In patent publication US20230015949A1, “NEISSERIA TREATMENT USING CANNABINOIDS” (priority 2019, published 2023):
≈ marks a conversion by molar mass, not a printed value. Read-outs that look alike come from different tables or passages of the source.

Experiments:
[1] = system: Staphylococcus aureus ATCC 29213; conditions: S. aureus ATCC 29213, CLSI QC ranges shown in parentheses, cited from earlier work
[2] = system: Staphylococcus aureus ATCC 29213; assay: Broth microdilution MIC assay, quality control strain (Example 2); type: cell-based; conditions: ATCC29213, S. aureus ATCC 29213 (QC), CAMHB
Method in brief: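 CLSI broth microdilution in cation-adjusted Mueller Hinton broth, 2-fold serial drug dilutions, inoculum about 5×10^5 CFU/mL. Plates incubated 16 to 20 hr at 35° C in ambient air. MIC is the lowest concentration inhibiting visible growth.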

Neisseria gonorrhoeae = assay: Broth microdilution MIC assay, 30 isolates (Example 2); type: cell-based
Experimental: In this study, the in vitro spectrum of activity of CBD was determined against 30 isolates comprised of reference strains from the WHO, isolates from the CDC antibiotic resistance bank, and clinical isolates from the Micromyx (MMX) repository, with different resistance phenotypes. Assays were conducted following guidelines recommended by the Clinical and Laboratory Standards Institute (CLSI; 1, 2) with the exception that broth microdilution was used instead of agar dilution.
Stock solutions of all compounds were prepared on the day of testing using solvents recommended by CLSI. Stock solutions of all compounds were made at 101× the final testing concentration. CBD was supplied by Cerilliant (Round Rock, Tex.) as a 1 mg/mL methanolic solution which was stored at −20° C. after receipt. Prior to testing, using a 5 mL aliquot of the CBD methanolic solution, the methanol was dried off and the residual CBD was resuspended in 774 μL DMSO resulting in a 6.464 mg/mL solution.
The test organisms evaluated in this study consisted of Neisseria gonorrhoeae isolates from the Micromyx repository and reference isolates from the American Type Culture Collection (ATCC; Manassas, Va.), Centers for Disease Control and Prevention (CDC; Atlanta, Ga.) or the National Collection of Type Cultures (NCTC; Public Health England, Salisbury, UK). Upon initial receipt at Micromyx, the organisms were sub-cultured onto an appropriate agar medium.
Following incubation, colonies were harvested from these plates and cell suspensions prepared and frozen at −80° C. with a cryoprotectant. Prior to testing, N. gonorrhoeae isolates were streaked onto Chocolate Agar [Becton Dickinson, (BD), Sparks, Md.; Lot No. 922807]; Staphylococcus aureus ATCC 29213 tested for quality control (QC) purposes was streaked onto Trypticase Soy Agar with 5% Sheep Blood (TSA II; BD; Lot No. 9219399).
For N. gonorrhoeae, a modified medium described by the ATCC as capable of supporting the growth of N. gonorrhoeae (Neisseria peptone medium) was used for the broth microdilution MIC assay. This medium contained 15 g Oxoid Special Peptone (Lot No. 1280296; Oxoid, Hampshire, UK), 1 g corn starch (Lot No. AD-13344-14; Ward's Science; Rochester, N.Y.), 5 g NaCl (Lot No. 57897; VWR, Radnor, Pa.), 4 g K2HPO4 (Lot No. SLBT7061; Sigma), and 1 g KH2PO4 (Lot No. SLBC1921V; Sigma). After autoclaving, the medium was centrifuged at 5,000×g for 10 min, the supernatant was passed through a 0.45 μm filter, and IsoVitaleX supplement (Lot No. 8323954; BD) was added at 1% (v/v).
MIC values were determined using a broth microdilution procedure described by CLSI (1, 2). Automated liquid handlers (Multidrop 384, Labsystems, Helsinki, Finland; Biomek 2000 and Biomek FX, Beckman Coulter, Fullerton Calif.) were used to conduct serial dilutions and liquid transfers.
To prepare the drug mother plates, which would provide the serial drug dilutions for the replicate daughter plates, the wells of columns 2 through 12 of standard 96-well microdilution plates (Costar 3795) were filled with 150 μl of the designated diluent for each row of drug. The test articles and comparator compounds (300 μl at 100× the highest concentration to be tested) were dispensed into the appropriate wells in column 1. The Biomek 2000 was then used to make 2-fold serial dilutions in the mother plates from column 1 through column 11. The wells of column 12 contained no drug and served as the organism growth control wells for the assay.
The daughter plates were loaded with 190 μL per well of the appropriate test medium for the tested organism using the Multidrop 384. The daughter plates were completed on the Biomek FX instrument which transferred 2 μL of drug solution from each well of a mother plate to the corresponding well of each daughter plate in a single step. Daughter plates for the testing of anaerobes were allowed to pre-reduce in the Bactron II anaerobe chamber for 2 hr prior to inoculation.

[3] = 30 isolates of N. gonorrhoeae, broth microdilution, MIC distribution
[4] = 30 isolates, broth dilution assay, MIC distribution (Table 6)

Question: What does the source list for `CC[C@H]1OC(=O)[C@H](C)[C@@H](O[C@H]2C[C@@](C)(OC)[C@@H](O)[C@H](C)O2)[C@H](C)[C@@H](O[C@@H]2O[C@H](C)C[C@H](N(C)C)[C@H]2O)[C@](C)(O)C[C@@H](C)CN(C)[C@H](C)[C@@H](O)[C@]1(C)O` [AZI, azithromycin]?
Answer: CLSI QC range of MIC [1]: 0.5 to 2 mg/L; CLSI QC range of MIC ([1]; listed as Azithromycin): (0.5-2)^1 μg/mL; MIC [2]: 0.5 mg/L (≈ 0.668 µM); MIC (Neisseria gonorrhoeae): 0.25 mg/L (≈ 0.334 µM); MIC90 (Neisseria gonorrhoeae; 30 isolates of N. gonorrhoeae, broth microdilution): >8 mg/L; Number of isolates at MIC value 0.015 μg/mL (Neisseria gonorrhoeae; [3]): 0; Number of isolates at MIC value 0.03 μg/mL (Neisseria gonorrhoeae; [3]): 0; Number of isolates at MIC value 0.06 μg/mL (Neisseria gonorrhoeae; [3]): 2; Number of isolates at MIC value 0.5 μg/mL (Neisseria gonorrhoeae; [3]): 2; Number of isolates at MIC value 1 μg/mL (Neisseria gonorrhoeae; [3]): 1; Number of isolates at MIC value 2 μg/mL (Neisseria gonorrhoeae; [3]): 2; Number of isolates at MIC value 4 μg/mL (Neisseria gonorrhoeae; [3]): 1; Number of isolates at MIC value 8 μg/mL (Neisseria gonorrhoeae; [3]): 1; Number of isolates at MIC value >8 μg/mL (Neisseria gonorrhoeae; [3]): 4; Number of isolates at MIC 0.08 μg mL^−1 (Neisseria gonorrhoeae; [4]): 0; Number of isolates at MIC ≤0.004 μg mL^−1 (Neisseria gonorrhoeae; [4]): 0; MIC (Neisseria gonorrhoeae; Neisseria gonorrhoeae, ATCC49226, N. gonorrhoeae ATCC 49226 (QC), broth microdilution, read-out: MIC): 0.25 mg/L (≈ 0.334 µM); MIC (Neisseria gonorrhoeae; Neisseria gonorrhoeae, N. gonorrhoeae CDC 0165 (CIP-R, AZI MIC 1), broth microdilution, read-out: MIC): 1 mg/L (≈ 1.34 µM); MIC (Neisseria gonorrhoeae; Neisseria gonorrhoeae, N. gonorrhoeae CDC 0166 (CIP-R, AZI MIC 1), broth microdilution, read-out: MIC): 0.5 mg/L (≈ 0.668 µM); MIC (Neisseria gonorrhoeae; Neisseria gonorrhoeae, N. gonorrhoeae CDC 0167 (CIP-S, AZI MIC 8), broth microdilution, read-out: MIC): > 8 mg/L; MIC (Neisseria gonorrhoeae; Neisseria gonorrhoeae, N. gonorrhoeae CDC 0172 (CIP-R, AZI MIC 0.5), broth microdilution, read-out: MIC): 0.25 mg/L (≈ 0.334 µM); MIC (Neisseria gonorrhoeae; Neisseria gonorrhoeae, N. gonorrhoeae CDC 0175 (CIP-S, AZI MIC 16), broth microdilution, read-out: MIC): > 8 mg/L; MIC (Neisseria gonorrhoeae; Neisseria gonorrhoeae, N. gonorrhoeae CDC 0177 (CIP-S, AZI MIC 2), broth microdilution, read-out: MIC): 2 mg/L (≈ 2.67 µM); MIC (Neisseria gonorrhoeae; Neisseria gonorrhoeae, N. gonorrhoeae CDC 0181 (CIP-S, AZI MIC 256), broth microdilution, read-out: MIC): > 8 mg/L; MIC (Neisseria gonorrhoeae; Neisseria gonorrhoeae, N. gonorrhoeae CDC 0194 (CRO-NS, CIP-S, AZI MIC 0.5), broth microdilution, read-out: MIC): 0.25 mg/L (≈ 0.334 µM); MIC (Neisseria gonorrhoeae; Neisseria gonorrhoeae, N. gonorrhoeae MMX 6921 (CIP-R), broth microdilution, read-out: MIC): 8 mg/L (≈ 10.7 µM); MIC (Neisseria gonorrhoeae; Neisseria gonorrhoeae, N. gonorrhoeae MMX 6938 (CIP-S), broth microdilution, read-out: MIC): 0.25 mg/L (≈ 0.334 µM); MIC (Neisseria gonorrhoeae; Neisseria gonorrhoeae, N. gonorrhoeae MMX 10409 (CIP-R), broth microdilution, read-out: MIC): 0.25 mg/L (≈ 0.334 µM); MIC (Neisseria gonorrhoeae; Neisseria gonorrhoeae, N. gonorrhoeae MMX 10410 (CIP-S), broth microdilution, read-out: MIC): 0.12 mg/L (≈ 0.16 µM); MIC (Neisseria gonorrhoeae; Neisseria gonorrhoeae, N. gonorrhoeae MMX 10447 (CIP-S), broth microdilution, read-out: MIC): 0.06 mg/L (≈ 0.0801 µM); MIC (Neisseria gonorrhoeae; Neisseria gonorrhoeae, N. gonorrhoeae MMX 10450 (CIP-S), broth microdilution, read-out: MIC): 0.12 mg/L (≈ 0.16 µM); MIC (Neisseria gonorrhoeae; Neisseria gonorrhoeae, N. gonorrhoeae MMX 10452 (CIP-R), broth microdilution, read-out: MIC): 0.12 mg/L (≈ 0.16 µM); MIC (Neisseria gonorrhoeae; Neisseria gonorrhoeae, N. gonorrhoeae MMX 10454 (CIP-R), broth microdilution, read-out: MIC): 0.12 mg/L (≈ 0.16 µM); MIC (Neisseria gonorrhoeae; Neisseria gonorrhoeae, NCTC13477, N. gonorrhoeae NCTC 13477 (WHO F; CIP-S, AZI MIC […]), broth microdilution, read-out: MIC): 0.06 mg/L (≈ 0.0801 µM); MIC (Neisseria gonorrhoeae; Neisseria gonorrhoeae, NCTC13478, N. gonorrhoeae NCTC 13478 (WHO G; CIP-I, AZI MIC […]), broth microdilution, read-out: MIC): 0.25 mg/L (≈ 0.334 µM); MIC (Neisseria gonorrhoeae; Neisseria gonorrhoeae, NCTC13479, N. gonorrhoeae NCTC 13479 (WHO K; CIP-R, AZI MIC […]), broth microdilution, read-out: MIC): 0.25 mg/L (≈ 0.334 µM); MIC (Neisseria gonorrhoeae; Neisseria gonorrhoeae, NCTC13480, N. gonorrhoeae NCTC 13480 (WHO L; CIP-R, AZI MIC 0.5), broth microdilution, read-out: MIC): 0.25 mg/L (≈ 0.334 µM); MIC (Neisseria gonorrhoeae; Neisseria gonorrhoeae, NCTC13481, N. gonorrhoeae NCTC 13481 (WHO M; CIP-R, AZI MIC […]), broth microdilution, read-out: MIC): 0.12 mg/L (≈ 0.16 µM); MIC (Neisseria gonorrhoeae; Neisseria gonorrhoeae, NCTC13482, N. gonorrhoeae NCTC 13482 (WHO N; CIP-R, AZI MIC […]), broth microdilution, read-out: MIC): 0.12 mg/L (≈ 0.16 µM); MIC (Neisseria gonorrhoeae; Neisseria gonorrhoeae, NCTC13483, N. gonorrhoeae NCTC 13483 (WHO O; CIP-S, AZI MIC […]), broth microdilution, read-out: MIC): 0.25 mg/L (≈ 0.334 µM); MIC (Neisseria gonorrhoeae; Neisseria gonorrhoeae, NCTC13484, N. gonorrhoeae NCTC 13484 (WHO P; CIP-S, AZI MIC 4), broth microdilution, read-out: MIC): 4 mg/L (≈ 5.34 µM); MIC (Neisseria gonorrhoeae; Neisseria gonorrhoeae, NCTC13817, N. gonorrhoeae NCTC 13817 (WHO U; CIP-S, AZI MIC 4), broth microdilution, read-out: MIC): 2 mg/L (≈ 2.67 µM); MIC (Neisseria gonorrhoeae; Neisseria gonorrhoeae, NCTC13818, N. gonorrhoeae NCTC 13818 (WHO V; CIP-R, AZI MIC >256), broth microdilution, read-out: MIC): > 8 mg/L; MIC (Neisseria gonorrhoeae; Neisseria gonorrhoeae, NCTC13819, N. gonorrhoeae NCTC 13819 (WHO W; CIP-R, AZI MIC 0.5), broth microdilution, read-out: MIC): 0.25 mg/L (≈ 0.334 µM); MIC (Neisseria gonorrhoeae; Neisseria gonorrhoeae, NCTC13820, N. gonorrhoeae NCTC 13820 (WHO X; CRO-NS, CIP-R, AZI MIC 0.5), broth microdilution, read-out: MIC): 0.25 mg/L (≈ 0.334 µM); MIC (Neisseria gonorrhoeae; Neisseria gonorrhoeae, NCTC13821, N. gonorrhoeae NCTC 13821 (WHO Y; CIP-R, AZI MIC 1), broth microdilution, read-out: MIC): 0.5 mg/L (≈ 0.668 µM); MIC50 (Neisseria gonorrhoeae; Neisseria gonorrhoeae, 30 isolates of N. gonorrhoeae, broth microdilution, read-out: MIC50): 0.25 mg/L (≈ 0.334 µM); MIC90 (Neisseria gonorrhoeae; Neisseria gonorrhoeae, 30 isolates of N. gonorrhoeae, broth microdilution, read-out: MIC90): > 8 mg/L; MIC (Neisseria gonorrhoeae; Neisseria gonorrhoeae, 30 isolates of N. gonorrhoeae, broth microdilution, read-out: MIC Mode): 0.25 mg/L (≈ 0.334 µM)
